Bridge positions count the residues as written; N and C are the ends. Ends that are not written are not given here.

Test [1] deals with NCR247_reduced. Description: UV/vis difference-spectroscopic titration of peptide (10 or 20 uM) with heme (0.4-40 uM) in 100 mM HEPES pH 7.0 after 1 min incubation, evaluated near 428 nm for one binding site. As for the experimental part:
(§1) Heme binding to the NCR247 parent peptide and its analogues was assessed using UV/vis spectroscopy (Table S2) following an earlier established experimental set‐up,[27, 30, 31, 32] with heme (0.4 to 40 μM) titrated to NCR247 peptide (20 μM) in 100 mM HEPES buffer (pH 7.0). […] The KD value for this peptide was first determined by adjusting the established protocol[30] to 1 min incubation time, while at an incubation time of 30 min concomitant oxidation of the cysteine residues has taken place as indicated by the fact that a stable complex was formed only in the first minutes and then a change in the spectrum occurred which is due to disulfide bond formation changing the heme‐binding behaviour of the peptide. […]
(§2) Heme binding to the NCR247-derived peptides (Fig. 1, Table S1) was investigated by UV/vis spectroscopy, as described earlier.[2,3,7– 9] […] Absorbance spectra were recorded on a Multiskan GO spectrophotometer (ThermoScientific, Dreieich, Germany) in the range of 300 - 600 nm. Difference spectra were generated by subtracting the spectra of heme and peptide alone from the absorbance spectrum of the hemin-peptide complex. Dissociation constants (KD) were determined by using GraphPad Prism 10.0.2 and the earlier established equation from Pîrnău and Bogdan, as described elsewhere.[7,10]

Test [2] deals with MBP-NCR247_1-4,2-3. Description: UV/vis spectroscopic titration of preformed MBP (10 uM) plus NCR247_1-4,2-3 (10 uM) with heme (4-45 uM), 30 min incubation, evaluated near 420 nm with a 1:1 model. The note with it: read-out: KD value, stoichiometry 1:1 (MBP-NCR247_1-4,2-3:heme). The test is classed as binding. On the procedure:
(§3) Peroxidase-like activity of the heme-peptide complexes.
(§4) 10 μl of the heme-peptide complex (final concentration:
(§5) (100%) and evaluated as the average of triplicate measurements.
(§6) Subsequently, absorbance spectra were recorded
(§7) Similar to the aforementioned approach,
(§8) NCR247 was added and measured spectroscopically.
(§9) Resonance Raman spectroscopy of the heme-peptide complexes.
(§10) -60°C (ANDOR, Ireland, 1024x127 pixels) used for detection.
(§11) were combined in an equimolar ratio.
(§12) The raw Raman spectra were
(§13) visualised using the graphing software OriginPro 2016G Sr2.
(§14) clipping (SNIP) algorithm, and vector normalisation.
(§15) Circular Dichroism (CD) spectroscopy with NCR247-derived peptides.
(§16) All the peptide solutions were prepared
(§17) prediction tool. […] The structure

The target in another test is T1, NCR247_1-2,3-4.
T1 construct: synthetic 24mer, oxidized isomer, disulfides Cys4-Cys10 and Cys15-Cys21
In words: UV/vis difference-spectroscopic titration of peptide (10 or 20 uM) with heme (0.4-40 uM) in 100 mM HEPES pH 7.0 after 30 min incubation at room temperature, one binding site. On the procedure: (§18) Heme binding to the NCR247 parent peptide and its analogues was assessed using UV/vis spectroscopy (Table S2) following an earlier established experimental set‐up,[27, 30, 31, 32] with heme (0.4 to 40 μM) titrated to NCR247 peptide (20 μM) in 100 mM HEPES buffer (pH 7.0). […] The KD value for this peptide was first determined by adjusting the established protocol[30] to 1 min incubation time, while at an incubation time of 30 min concomitant oxidation of the cysteine residues has taken place as indicated by the fact that a stable complex was formed only in the first minutes and then a change in the spectrum occurred which is due to disulfide bond formation changing the heme‐binding behaviour of the peptide.
(§19) Figure 4 Heme‐binding analysis of NCR247 peptides. UV/vis spectroscopic analysis upon addition of increasing concentrations of heme (0.4–40 μM) to NCR247 oxidized isomers (on the left), in silico docking analysis (in the middle) showing residues involved in heme binding and rRaman spectra of heme‐peptide (1 : 1) complex (on the right). a, NCR247_1–3,2–4. b, NCR247_1–2,3–4. c, NCR247_reduced form, with free Cys residues. The complex formation was analysed after incubating it for 30 min at room temperature. The change in the spectral behaviour when measured after 1 min and 30 min of complex incubation is noteworthy. The intensity of the bands at λ =364 nm, indicate a change in the peptide and can be attributed to concomitant oxidation of free Cys residues in aqueous buffer systems, making the Soret band at λ =428 nm more prominent, similar to the one observed in case of the oxidized isomers. d, Peroxidase‐like activity assay of heme‐NCR247 complex measured using an oxidative conversion of TMB substrate at 652 nm. […]
(§20) Under oxidative reaction conditions, the cysteines were deprotected and folded by formation of the disulfide bridges between the cysteines according to protocols reported earlier.[4,5] […]

The target in another test is T2, NCR247_1-4,2-3.
T2 construct: synthetic 24mer, oxidized isomer, disulfides Cys4-Cys21 and Cys10-Cys15
The description is as above. On the procedure:
as §18, §19, §20

The next test deals with T3, NCR247_1-3,2-4.
T3 construct: synthetic 24mer, oxidized isomer, disulfides Cys4-Cys15 and Cys10-Cys21
Described as above. On the procedure:
as §18, §19, §20

Test [3] has as its target MBP-NCR247_1-4,2-3. In words: UV/vis spectroscopic titration of preformed MBP (10 uM) plus NCR247_1-4,2-3 (10 uM) with heme (4-45 uM), 30 min incubation, evaluated with a model of two heme molecules per complex. The note with it: read-out: KD value, two heme molecules binding to the MBP-NCR247_1-4,2-3 complex. On the procedure: as §3, §4, §5, §6, §7, §8, §9, §10, §11, §12, §13, §14, §15, §16, §17

For a further test, the target named is T4, MBP (Escherichia coli, UniProt P0AEX9).
T4 construct: gene malE; commercial (Rockland Inc.)
In words: UV/vis spectroscopic titration of MBP (10 uM) with heme (4-40 uM) in HEPES pH 7.0 after 30 min incubation, 1:1 model, Soret band near 400 nm. Format: binding. The conditions noted are these: read-out: KD value, stoichiometry 1:1 (MBP:heme).

In test [4] the target is NCR247_reduced. Description: UV/vis difference-spectroscopic titration of peptide (10 or 20 uM) with heme (0.4-40 uM) in 100 mM HEPES pH 7.0 after 30 min incubation at room temperature, one binding site. On the procedure: Heme binding to the NCR247 parent peptide and its analogues was assessed using UV/vis spectroscopy (Table S2) following an earlier established experimental set‐up,[27, 30, 31, 32] with heme (0.4 to 40 μM) titrated to NCR247 peptide (20 μM) in 100 mM HEPES buffer (pH 7.0). […] time, while at an incubation time of 30 min concomitant oxidation of the cysteine residues has taken place as indicated by the fact that a stable complex was formed only in the first minutes and then a change in the spectrum occurred which is due to disulfide bond formation changing the heme‐binding behaviour of the peptide.
Figure 4 Heme‐binding analysis of NCR247 peptides. […] The complex formation was analysed after incubating it for 30 min at room temperature. The change in the spectral behaviour when measured after 1 min and 30 min of complex incubation is noteworthy. The intensity of the bands at λ =364 nm, indicate a change in the peptide and can be attributed to concomitant oxidation of free Cys residues in aqueous buffer systems, making the Soret band at λ =428 nm more prominent, similar to the one observed in case of the oxidized isomers. d, Peroxidase‐like activity assay of heme‐NCR247 complex measured using an oxidative conversion of TMB substrate at 652 nm. […]

Test [5] is described as follows: UV/vis titration of MBP in complex with NCR247_1–4,2–3 with heme. The conditions noted are these: peptide versus MBP.
Procedure: UV/vis titration experiments of peptides and proteins with heme.
Maltose-binding protein (Rockland Inc. Pennsylvania, USA) (10 µM) was preincubated with heme in different concentrations (4 - 40
µM) for 30 min in HEPES buffer (pH 7.0) prior to the UV/vis spectroscopic analysis. Subsequently, absorbance spectra were recorded
and analysed analogously to the heme-binding studies with the peptides described above.[2] Similar to the aforementioned approach,
NCR247 was added and measured spectroscopically. In addition to this, 10 µM NCR247_1-4,2-3 was incubated with increasing
A short description of test [6]: UV/vis spectroscopy heme binding to NCR247-derived peptides. The note with it: 30 min incubation; Soret λ ~420 nm (oxidized isomers) or ~428 nm (reduced); n=1; peptide 20 μM, heme 0.4-40 μM, 100 mM HEPES pH 7.0. As for the experimental part:
as §1, §2

Details of test [7]: method as in earlier work. The note with it: ref 11 (Sankari et al.); cited from earlier work.

By Kd is commonly meant the constant that tells how readily two partners part at equilibrium. Take `C=CC1=C(C)c2cc3[nH]c(cc4nc(cc5[nH]c(cc1n2)c(C)c5CCC(=O)O)C(CCC(=O)O)=C4C)c(C)c3C=C.[Fe+3]` [heme, Fe(III) protoporphyrin IX (Fe(III)PPIX, hemin)]: the Kd on NCR247_reduced [1] is 1.44 µM; on MBP-NCR247_1-4,2-3 [2], 14900 nM; at NCR247_1-2,3-4 it was 2980 nM; on NCR247_1-4,2-3 it was 2800 nM; at NCR247_1-3,2-4 it was 2090 nM; on MBP-NCR247_1-4,2-3 [3], 7600 nM. For the same compound, the Kd at MBP turned out to be 7200 nM; at NCR247_reduced [4], 2270 nM.

On to “NCR247_1–4,2–3: RNGCIVDPRCPYQQCRRPLYCRRR, isomer with bridges Cys4‐Cys21 and Cys10‐Cys15 (disulfide 10-15, 4-21)”, for which, in [5], the “binding affinity of the peptide compared to the protein (MBP)” value is recorded as “two‐fold higher”.

Regarding “NSR247: RNGSIVDPRSPYQQSRRPLYSRRR, mutant with all cysteine residues replaced with serine, negative control”, the KD heme binding entry in [6] was “n.b. and completely lost and absence of heme binding”. In test [7], the heme-binding affinity result is on record as “μM range”.

These data come from paper PMC11875561, “Molecular Insights into the Heme‐Binding Potential of Plant NCR247‐Derived Peptides” (Chembiochem, 2025).
